Measurements as given in ChEMBL document CHEMBL1142059, “Excelsione, a depsidone from an endophytic fungus isolated from the New Zealand endemic tree Knightia excelsa” (J Nat Prod, 2007).

Tested on: P388; call rule not given here
Test: Cytotoxicity against mouse P388 cells at 12.5 ug/mL
Assay type: cell-based

Structure (SMILES): Cc1cc(O)c(CO)c2c1C(=O)Oc1c(C)c3c(c(O)c1O2)C(=O)OC3 [EXCELSIONE]
- Activity: Not Active
